According to patent US6737383B1, “Herbicidal oxadiazolidines” (priority 1999, dated 2004):

Legend:
[1] = system: crabgrass; assay: Test B pre/postemergence crabgrass; type: in vivo, Digitaria sanguinalis
Outline: (§1)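 Response is a visual 0-to-10 score relative to untreated plants, where 0 means no effect and 10 means complete control, taken twelve to sixteen days after application. Treatments went onto soil at planting and onto foliage of 1- to 4-leaf plants, using a surfactant-containing non-phytotoxic solvent.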

[2] = system: giant foxtail; assay: Test B pre/postemergence giant foxtail; type: in vivo, Setaria faberii
Outline: as §1

[3] = system: wheat; assay: Test B pre/postemergence wheat; type: in vivo, Triticum aestivum
Outline: as §1

[4] = system: purple nutsedge; assay: Test B pre/postemergence purple nutsedge; type: in vivo, Cyperus rotundus
Outline: as §1

[5] = system: smallflower flatsedge; assay: Test B flood test smallflower flatsedge; type: in vivo, Cyperus difformis
Outline: (§2)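 Each value is a visual injury score relative to controls, with 10 meaning complete control and 0 no effect. Evaluation took place twelve to sixteen days after the 2-leaf-stage plants were treated and kept in the greenhouse.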

[6] = system: bamyardgrass; assay: Test B flood test barnyardgrass; type: in vivo, Echinochloa crus-galli
Outline: as §2

[7] = system: surinam grass; assay: Test B pre/postemergence surinam grass; type: in vivo, Brachiaria decumbens
Outline: as §1

[8] = system: pigweed; assay: Test B pre/postemergence pigweed; type: in vivo, Amaranthus retroflexus
Outline: as §1

[9] = system: duck salad; assay: Test B flood test duck salad; type: in vivo, Heteranthera limosa
Outline: as §2

[10] = system: rice; assay: Test B flood test rice; type: in vivo, Oryza sativa
Outline: as §2

[11] = system: sugar beet; assay: Test B pre/postemergence sugar beet; type: in vivo, Beta vulgaris
Outline: as §1

[12] = system: cocklebur; assay: Test B pre/postemergence cocklebur; type: in vivo, Xanthium strumarium
Outline: as §1

[13] = system: wild oat; assay: Test B pre/postemergence wild oat; type: in vivo, Avena fatua
Outline: as §1

[14] = system: rape; assay: Test B pre/postemergence rape; type: in vivo, Brassica napus
Outline: as §1

[15] = system: corn; assay: Test B pre/postemergence corn; type: in vivo, Zea mays
Outline: as §1

[16] = system: morningglory; assay: Test B pre/postemergence morningglory; type: in vivo, Ipomoea hederacea
Outline: as §1

[17] = Postemergence, Rate 125 g/ha, scale of 0 to 10 where 0 is no effect and 10 is complete control
[18] = Preemergence, Rate 62 g/ha, scale 0 to 10 (0 no effect, 10 complete control)
[19] = Preemergence, Rate 125 g/ha, 0 is no effect, 10 is complete control
[20] = Preemergence, Rate 250 g/ha, scale 0 to 10, 0 is no effect, 10 is complete control
[21] = Preemergence, Rate 500 g/ha, scale 0 to 10 (0 no effect, 10 complete control)
[22] = Rate 62 g/ha, Postemergence, scale of 0 to 10 where 0 is no effect and 10 is complete control
[23] = Rate 250 g/ha, Postemergence, scale 0 to 10, 0 is no effect, 10 is complete control
[24] = Rate 500 g/ha, Postemergence, scale 0 to 10
[25] = Postemergence (flood test species), Rate 125 g/ha, scale of 0 to 10 where 0 is no effect and 10 is complete control
[26] = Rate 62 g/ha, Postemergence section, flood test species, scale of 0 to 10 where 0 is no effect and 10 is complete control
[27] = Rate 250 g/ha, Postemergence (flood test), scale 0 to 10, 0 is no effect, 10 is complete control
[28] = Rate 500 g/ha, listed under Postemergence (flood test species), scale 0 to 10

CCN(CC)C(=O)n1oc(=O)n(Cc2ccccc2)c1=O [Compound 152]
3: Crabgrass plant response rating [1, 21] | Crabgrass plant response rating [1, 24] | Giant foxtail plant response rating [2, 20] | Giant foxtail plant response rating [2, 24]
6: B. signalgrass plant response rating [7, 21]
0: Crabgrass plant response rating [1, 17] | Crabgrass plant response rating [1, 18] | Crabgrass plant response rating (0 to 10 scale) [1, 19] | Crabgrass plant response rating [1, 22] | Giant foxtail plant response rating [2, 17] | Giant foxtail plant response rating [2, 18] | Giant foxtail plant response rating (0 to 10 scale) [2, 19] | Giant foxtail plant response rating [2, 22] | Plant response rating, Giant foxtail [2, 23] | Wheat plant response rating [3, 18] | Wheat plant response rating (0 to 10 scale) [3, 19] | Wheat plant response rating [3, 20] | Wheat plant response rating [3, 21] | Wheat plant response rating [3, 22] | Plant response rating, Wheat [3, 23] | Wheat plant response rating [3, 24] | Nutsedge plant response rating [4, 17] | Nutsedge plant response rating [4, 18] | Nutsedge plant response rating (0 to 10 scale) [4, 19] | Nutsedge plant response rating [4, 20] | Nutsedge plant response rating [4, 21] | Nutsedge plant response rating [4, 22] | Plant response rating, Nutsedge [4, 23] | Nutsedge plant response rating [4, 24] | S. Flatsedge plant response rating [5, 25] | S. Flatsedge plant response rating [5, 26] | Plant response rating, S. Flatsedge [5, 27] | S. Flatsedge plant response rating [5, 28] | Barnyardgrass plant response rating [6, 25] | Barnyardgrass plant response rating [6, 26] | Plant response rating, Barnyardgrass [6, 27] | Barnyardgrass plant response rating ([6]; Rate 500 g/ha, listed under Postemergence (flood test species), scale 0 to 10, 0 no effect, 10 complete control) | B. signalgrass plant response rating [7, 17] | B. signalgrass plant response rating [7, 18] | B. signalgrass plant response rating [7, 22] | Plant response rating, B. signalgrass [7, 23] | B. signalgrass plant response rating ([7]; Rate 500 g/ha, Postemergence, scale of 0 to 10 where 0 is no effect and 10 is complete control) | Redroot pigweed plant response rating [8, 17] | Redroot pigweed plant response rating [8, 18] | Redroot pigweed plant response rating (0 to 10 scale) [8, 19] | Redroot pigweed plant response rating [8, 20] | Redroot pigweed plant response rating [8, 21] | Redroot pigweed plant response rating [8, 22] | Plant response rating, Redroot pigweed [8, 23] | Redroot pigweed plant response rating [8, 24] | Ducksalad plant response rating [9, 25] | Ducksalad plant response rating [9, 26] | Plant response rating, Ducksalad [9, 27] | Ducksalad plant response rating [9, 28] | Rice plant response rating [10, 25] | Rice plant response rating [10, 26] | Plant response rating, Rice [10, 27] | Rice plant response rating [10, 28] | Sugarbeets plant response rating [11, 17] | Sugarbeets plant response rating [11, 18] | Sugarbeets plant response rating (0 to 10 scale) [11, 19] | Sugarbeets plant response rating [11, 20] | Sugarbeets plant response rating [11, 21] | Sugarbeets plant response rating [11, 22] | Plant response rating, Sugarbeets [11, 23] | Sugarbeets plant response rating [11, 24] | Cocklebur plant response rating [12, 17] | Cocklebur plant response rating [12, 18] | Cocklebur plant response rating (0 to 10 scale) [12, 19] | Cocklebur plant response rating [12, 20] | Cocklebur plant response rating [12, 21] | Cocklebur plant response rating [12, 22] | Plant response rating, Cocklebur [12, 23] | Cocklebur plant response rating [12, 24] | Wild oats plant response rating [13, 18] | Wild oats plant response rating (0 to 10 scale) [13, 19] | Wild oats plant response rating [13, 20] | Wild oats plant response rating [13, 21] | Wild oats plant response rating [13, 22] | Plant response rating, Wild oats [13, 23] | Wild oats plant response rating [13, 24] | Rape plant response rating [14, 17] | Rape plant response rating [14, 18] | Rape plant response rating (0 to 10 scale) [14, 19] | Rape plant response rating [14, 20] | Rape plant response rating [14, 21] | Rape plant response rating [14, 22] | Plant response rating, Rape [14, 23] | Rape plant response rating [14, 24] | Corn plant response rating [15, 17] | Corn plant response rating [15, 18] | Corn plant response rating (0 to 10 scale) [15, 19] | Corn plant response rating [15, 20] | Corn plant response rating [15, 21] | Corn plant response rating [15, 22] | Plant response rating, Corn [15, 23] | Corn plant response rating [15, 24] | Morningglory plant response rating [16, 17] | Morningglory plant response rating [16, 18] | Morningglory plant response rating (0 to 10 scale) [16, 19] | Morningglory plant response rating [16, 20] | Morningglory plant response rating [16, 21] | Morningglory plant response rating [16, 22] | Plant response rating, Morningglory [16, 23] | Morningglory plant response rating [16, 24]
5: Giant foxtail plant response rating [2, 21]
2: Plant response rating, Crabgrass [1, 23]
4: B. signalgrass plant response rating (0 to 10 scale) [7, 19] | B. signalgrass plant response rating [7, 20]
1: Crabgrass plant response rating [1, 20]
